Results on one substance are retold here after patent publication US7160908B2, “Dynamic anticancer platinum compounds” (Unitech Pharmaceuticals, Inc., priority 2003, dated 2007).

The subject of one assay is Colon, HT-29 Tumor Cells. Nature of the assay: Anti-proliferative activity, alamarBlue cell viability, HT-29. Type of assay: cell-based, human. Conditions: for Percent Growth (Mean of 2): 72-hour incubation, vehicle = 100. How it is done:
(§1) UTD-4-A was dissolved in 100% DMSO and then diluted with sterile distilled water to obtain initial working solutions of […] in 40% DMSO. A 100-fold dilution was further made in culture media to generate final assay concentrations of […] in 0.4% DMSO.
(§2) Aliquots of […] of cell suspension (about 2.5×10^3/well) were placed in 96-well microtiter plates in an atmosphere of 5% CO2 at 37° C. After 24 hours, […] of growth medium and […] of test solution or vehicle (40% DMSO) were added respectively per well in duplicate for an additional 72-hour incubation.
(§3) Thus, the final concentration of DMSO was 0.4%. The test compound, UTD-4-A, was evaluated at concentrations of […]. At the end of incubation, […] of 90% alamarBlue reagent was added to each well for another 6-hour incubation before detection of cell viability by fluorescent intensity. Fluorescent intensity was measured using a Spectraflour Plus plate reader with excitation at 530 nm and emission at 590 nm.
On the technique in general: Resazurin is reduced to fluorescent resorufin, in cell work by metabolically active cells.

Assay [1] deals with Ovary, OVCAR-3 Tumor Cell. Nature of the assay: Anti-proliferative activity, alamarBlue cell viability, OVCAR-3. Type of assay: cell-based, human. Conditions: for Percent Growth (Mean of 2): 72-hour incubation, vehicle = 100. On the procedure: as §1, §2, §3
Where [2] appears, read: concentrations between 10 and 100 μM.

As for “cis-[Pt(NH3)(NH2—CHCH3—CO—O)]Cl [UTD-4-A]”, the “Percent Growth (Mean of 2)” value in the assay with Colon, HT-29 Tumor Cells (1 μM) was found to be 100 ± 6; with Colon, HT-29 Tumor Cells (10 μM), 95 ± 8; in the assay on Colon, HT-29 Tumor Cells (100 μM), 41 ± 4; in assay [1] (1 μM), 100 ± 6; in assay [1] (10 μM) it was 85 ± 3; in assay [1] (100 μM) it was 30 ± 3. In addition, the “growth inhibition relative to the vehicle-treated control” value in the assay on Colon, HT-29 Tumor Cells (setting [2]) is “significant growth inhibition”; in assay [1] (setting [2]), “significant growth inhibition”.
